# US20230264009A1, “DISINFECTING CAP KIT FOR LUER ACCESS DEVICES” (SterileCare Inc., priority 2022, published 2023)
# How the values were obtained:
# E. coli SK2 [1] = test: Checkerboard titration, FICI; assay type: cell-based, Escherichia coli
# Protocol: (§1) A fourth composition and solution included tetrasodium EDTA with ethanol or chlorhexidine HCl. This fourth composition and solution were created using checkerboard titration methods using micro broth dilution in 96-well microtiter plates. The concentrations of antimicrobials used were based on previously determined MIC values. Briefly, 200 µL of two-fold dilutions of tetrasodium EDTA and ethanol or chlorhexidine HCl were prepared in MH or MH II broth with standardized cell suspension. […] Microtiter plates were incubated at 37° C. for 24 h, and the results were analyzed. Each test was performed in duplicate and included a growth control without adding any antimicrobials.
# [2] = system: 48-h-old biofilms of bacterial and fungal strains; test: MBEC Assay, 24 h exposure (summary); assay type: cell-based; conditions: following 24 h of treatment
# Protocol: A biofilm cultivation cell composition was provided. This fifth composition was created using an MBEC Assay® biofilm inoculator, consisting of a polystyrene lid with 96 downward-protruding pegs and a corresponding base used to grow biofilms. A standardized inoculum was diluted in an appropriate biofilm growth medium to achieve a viable cell count of 1.5 × 10^6 CFU/mL of bacterial cells or […] CFU/mL of fungal cells. Then, 150 µL of this inoculum was transferred into each appropriate well, and the peg lids were inserted into the microtiter plates. The plates were sealed with Parafilm and were incubated at optimum temperature for 48 h with slight rocking for bacteria and shaking at 200 rpm for fungal strains. After incubation, the peg lid was removed from the base and rinsed twice with sterile phosphate-buffered saline (PBS) for 2 min to remove loosely attached non-sessile cells. Before the antimicrobial challenge, the pegs in column 1 (n = 8) were considered the biofilm growth control; these pegs were removed from the lids, placed into 200 µL of recovery medium, and analyzed for starting biofilm cell numbers as described below. […] After the antimicrobial challenge, the pegs were rinsed twice with sterile PBS for 2 min and placed into a new 96-well plate containing 200 µL of recovery medium. The recovery plates were sealed with Parafilm, and biofilm cells were dislodged from the pegs by sonication for 30 min with a Branson 3510 bath sonicator. The biofilm cells in the recovery medium were serially diluted, and a drop dilution assay was performed to enumerate the viable cells. MBEC values were determined as the minimum concentration of antimicrobials that yielded a viable cell count at or lower than the 125 CFU/mL detection limit.
# [3] = system: Staphylococcus aureus ON89; test: MIC, micro broth dilution; assay type: cell-based; conditions: alone; S. aureus ON89; 24 h
# Protocol: (§2) An assay was made using a minimum inhibitory concentration (MIC) and minimum bactericidal concentration (MBC) and minimum fungicidal concentration (MFC) determination. The MIC was determined by the micro broth dilution method in 96-well plates. Serial two-fold dilutions of tetrasodium EDTA (from 2% to 0.015%), ethanol (from 50% to 0.1%) and chlorhexidine HCl (from 100 µg/mL to 0.025 µg/mL) were prepared in MH broth with a final volume of 90 µL per well. A 10 µL containing 1 × 10^5 bacterial cells or 2 × 10^3 fungal cells were added to each well. The inoculated plates were covered with a lid, sealed with Parafilm, and incubated for 24 h at 37° C. with slight rocking on a tilting platform shaker. After incubation, the optical density at 600 nm (OD 600 ) of the cultures in each well was measured using an xMark™ Microplate Absorbance Spectrophotometer (Bio-Rad). […] MBCs and MFCs were determined by transferring 100 µL from each well with no apparent growth onto appropriate agar plates, followed by incubation for 24 h at 37° C.
# Proteus mirabilis ON153 = test: MIC, micro broth dilution; assay type: cell-based; conditions: alone; P. mirabilis ON153; 24 h
# Protocol: as §2
# [4] = system: Pseudomonas aeruginosa SK1; test: MIC, micro broth dilution; assay type: cell-based; conditions: alone; P. aeruginosa SK1; 24 h
# Protocol: as §2
# Candida albicans SK4b = test: MIC, micro broth dilution; assay type: cell-based; conditions: alone; C. albicans SK4b; 24 h
# Protocol: as §2
# Escherichia coli ON29 = test: MIC, micro broth dilution; assay type: cell-based; conditions: alone; E. coli ON29; 24 h
# Protocol: as §2
# [5] = system: Stenotrophomonas maltophilia ON17; test: MIC, micro broth dilution; assay type: cell-based; conditions: alone; S. maltophilia ON17; 24 h
# Protocol: as §2
# Serratia marcescens SK2 = test: MIC, micro broth dilution; assay type: cell-based; conditions: alone; S. marcescens SK2; 24 h
# Protocol: as §2
# [6] = system: Staphylococcus epidermidis ON170; test: MIC, micro broth dilution; assay type: cell-based; conditions: alone; S. epidermidis ON170; 24 h
# Protocol: as §2
# [7] = system: Pseudomonas aeruginosa SK1 biofilm; test: FBEC index, checkerboard dilution on biofilms; assay type: cell-based; conditions: P. aeruginosa SK1 biofilm
# Protocol: In step (4), microtiter plates are incubated at 37° C. for 24 h. then (6), after incubation, the bacterial and fungal cells were dislodged from the pegs into the recovery medium described above.
# Three 10-µL aliquots, for a total of 30 µL from each well of recovery medium, were spotted on MH agar plates and incubated for 24 h at 37° C. […] The FBEC determination is a modification of the FICI.
# E. coli SK2 [8] = test: MIC, micro broth dilution; assay type: cell-based, Escherichia coli; conditions: alone, 24 h
# Protocol: as §2
# MRSA ON184 = test: Checkerboard titration, FICI; assay type: cell-based, Staphylococcus aureus
# Protocol: as §1
# [9] = tetrasodium EDTA + chlorhexidine HCl
compound,measurement,setting,value
"O=C([O-])CN(CCN(CC(=O)[O-])CC(=O)[O-])CC(=O)[O-].[Na+].[Na+].[Na+].[Na+] [EDTA, tetrasodium EDTA]",Concentration in combination giving FICI,E. coli SK2 [1]; [9],0.008 % w/v
same,Concentration in combination giving FICI,E. coli SK2 [1]; tetrasodium EDTA + ethanol,0.015 % w/v
same,Concentration alone able to eradicate all established biofilms,[2],4%
same,MIC,[3],0.063 % w/v
same,MIC,Proteus mirabilis ON153,1 % w/v
same,MIC,[4],0.25 % w/v
same,MIC,Candida albicans SK4b,1 % w/v
same,MIC,Escherichia coli ON29,0.5 % w/v
same,MIC,[5],0.063 % w/v
same,MIC,Serratia marcescens SK2,2 % w/v
same,MIC,[6],0.063 % w/v
same,FBEC (concentration in combination),[7]; [9],0.25 % w/v
same,FBEC (concentration in combination),[7]; tetrasodium EDTA + ethanol,0.125 % w/v
same,MIC,E. coli SK2 [8],0.5 % w/v
same,Concentration in combination giving FICI,MRSA ON184; [9],0.008 % w/v
same,Concentration in combination giving FICI,MRSA ON184; tetrasodium EDTA + ethanol,0.015 % w/v
